{
  "source": "patent US20130142882A1",
  "about": "“METHODS AND COMPOSITIONS FOR TREATMENT, MODIFICATION AND MANAGEMENT OF BONE CANCER PAIN” (GOLDEN BIOTECHNOLOGY CORPORATION, priority 2011, published 2013)",
  "tested_on": "rat model of bone cancer pain (Walker 256 rat mammary gland carcinoma cells injected into the right tibia)",
  "experiment": "Mechanical allodynia (Von Frey test) in a rat model of bone cancer pain",
  "format": "in vivo, Rat (Sprague-Dawley)",
  "procedure": "The objective of this study was to assess the potential anti-nociceptive and anti-tumourigenic effects of Compound 1, at doses of 15, 30 and 45 mg/kg, in an animal model of bone cancer pain. Metastasis of cancer cells to the bone was modeled by injecting Walker 256 rat mammary gland carcinoma cells into the medullary cavity of the right tibia (Mao-Yinga, et al. A rat model of bone cancer pain induced by intra-tibia inoculation of Walker 256 mammary gland carcinoma cells. Biochem Biophys Res Commun 2006; 345: 1292-1298). The development of mechanical allodynia was monitored using an established behavioural test (Von Frey test). Treatment administration was chronic, from the day of surgery, and administered twice daily for 21 days to determine whether there was a prophylactic effect on the development of mechanical allodynia. Zoledronic acid was used as a reference substance. No regulatory test guidelines were applicable to this study.\nRats have been studied in this model of bone cancer pain. The route of administration of Compound 1 and vehicle was oral. The doses of Compound 1 were 15, 30 and 45 mg/kg, twice a day (approximately 10 h apart) for 21 days.\nThe dose of zoledronic acid was 30 μg/kg, as a single administration, every second day from the day of surgery, based on historical data. The route of administration of zoledronic acid was subcutaneous.\nThe dose volume for test substance and vehicle treatments was 5 mL/kg. The vehicle for Compound 1 was corn oil. Each rat allocated to test substance or vehicle treatments received an oral dose, by gavage, twice daily (approximately 8 am and 6 pm) for 21 consecutive days. The dose volume for the reference substance treatment was 1 mL/kg. Each rat allocated to reference substance treatment received a single subcutaneous dose, by injection (approximately 8 am) every second day from the day of surgery.\nCell preparation. Walker 256 rat mammary gland carcinoma cells (obtained from the American Type Culture Collection (ATCC)) were harvested from sub-confluent cultures growing in vitro and the number of viable cells determined. Cells were then re-suspended in sterile phosphate buffered saline (PBS) at a concentration of 4×10^5 cells. Female Sprague-Dawley rats were intratibially injected in the right leg with 4×10^5 Walker 256 rat mammary gland carcinoma cells in a volume of 6 μL as detailed in Surgical procedure below.\nBaseline behavioural testing. The rats were moved to the procedure room 5 days prior to behavioural testing. The rats were then housed, dosed and observed in the procedure room. The behavioural test was performed on all rats on 2 separate occasions prior to surgery, to establish baseline values. Pre-surgery baseline values were taken as the data from the final (second) day of testing (the data from the first day of testing was not included but classed as part of the acclimatisation).\nMechanical allodynia (Von Frey test): Each animal was placed in a wire mesh cage and a series of Von Frey filaments were applied to the plantar surface of the hind paw, from below. The filaments were applied in ascending order (starting with the weakest force), and the withdrawal threshold for both the left and right hind paws were evaluated. Each filament was indented on the mid-plantar surface of the foot to the point where it just started to bend; this was repeated approximately 8 to 10 times per filament at a frequency of approximately 1 Hz. The withdrawal threshold was defined as the lowest force of two or more consecutive Von Frey filaments to elicit a reflex withdrawal response (i.e. a brief paw flick).\nSurgical procedure. The animals were surgically prepared over 2 days. Each rat was anaesthetised as necessary with isofluorane in […]. The surface around the incision site was shaved and sterilised. Under aseptic conditions, an incision was made in the skin over the top of the right tibia to expose the tibia head with minimal damage. […]",
  "key": {"[1]": {"settings": "15 mg/kg p.o. twice daily, Day 6, left paw"}, "[2]": {"settings": "15 mg/kg p.o. twice daily, Day 6, right paw"}, "[3]": {"settings": "15 mg/kg p.o. twice daily, Day 12, left paw"}, "[4]": {"settings": "15 mg/kg p.o. twice daily, Day 12, right paw"}, "[5]": {"settings": "15 mg/kg p.o. twice daily, Day 14, left paw"}, "[6]": {"settings": "15 mg/kg p.o. twice daily, Day 14, right paw"}, "[7]": {"settings": "15 mg/kg p.o. twice daily, Day 19, left paw"}, "[8]": {"settings": "15 mg/kg p.o. twice daily, Day 19, right paw"}, "[9]": {"settings": "15 mg/kg p.o. twice daily, Day 21, left paw"}, "[10]": {"settings": "15 mg/kg p.o. twice daily, Day 21, right paw"}, "[11]": {"settings": "15 mg/kg p.o. twice daily, Pre-Surgery, left paw"}, "[12]": {"settings": "15 mg/kg p.o. twice daily, Pre-Surgery, right paw"}, "[13]": {"settings": "30 mg/kg p.o. twice daily, Day 6, left paw"}, "[14]": {"settings": "30 mg/kg p.o. twice daily, Day 6, right paw"}, "[15]": {"settings": "30 mg/kg p.o. twice daily, Day 12, left paw"}, "[16]": {"settings": "30 mg/kg p.o. twice daily, Day 12, right paw"}, "[17]": {"settings": "30 mg/kg p.o. twice daily, Day 14, left paw"}, "[18]": {"settings": "30 mg/kg p.o. twice daily, Day 14, right paw"}},
  "note": "“And” between values parts separate entries of the source, which are not always exact repeats. Equal entries are not always repeated.",
  "data": [
    {"smiles": "COC1=C(OC)C(O)C(C/C=C(\\C)CC/C=C(\\C)CCC=C(C)C)C(C)C1=O", "note": "(stereo not drawn) [Compound 1, 4-hydroxy-2,3-dimethoxy-6-methyl-5-(3,7,11-trimethyldodeca-2,6,10-trienyl)cyclohex-2-enone]", "values": [
      {"measurement": "Withdrawal Threshold (Log 10 (force (g) × 10 000)) on Day Post-Operative", "setting": "[1]", "result": "5.33 Log 10 (force (g) × 10 000)"},
      {"measurement": "Withdrawal threshold (g) on day post-operative", "setting": "[1]", "result": 21.65, "unit": "g"},
      {"measurement": "Withdrawal Threshold (Log 10 (force (g) × 10 000)) on Day Post-Operative", "setting": "[2]", "result": "5.31 Log 10 (force (g) × 10 000)"},
      {"measurement": "Withdrawal threshold (g) on day post-operative", "setting": "[2]", "result": 20.81, "unit": "g"},
      {"measurement": "Withdrawal Threshold (Log 10 (force (g) × 10 000)) on Day Post-Operative", "setting": "[3]", "result": "5.19 Log 10 (force (g) × 10 000)"},
      {"measurement": "Withdrawal threshold (g) on day post-operative", "setting": "[3]", "result": 16.27, "unit": "g"},
      {"measurement": "Withdrawal Threshold (Log 10 (force (g) × 10 000)) on Day Post-Operative", "setting": "[4]", "result": "4.99 Log 10 (force (g) × 10 000)"},
      {"measurement": "Withdrawal threshold (g) on day post-operative", "setting": "[4]", "result": 11.12, "unit": "g"},
      {"measurement": "Withdrawal Threshold (Log 10 (force (g) × 10 000)) on Day Post-Operative", "setting": "[5]", "result": "5.18 Log 10 (force (g) × 10 000)"},
      {"measurement": "Withdrawal threshold (g) on day post-operative", "setting": "[5]", "result": 16.61, "unit": "g"},
      {"measurement": "Withdrawal Threshold (Log 10 (force (g) × 10 000)) on Day Post-Operative", "setting": "[6]", "result": "4.91 Log 10 (force (g) × 10 000)"},
      {"measurement": "Withdrawal threshold (g) on day post-operative", "setting": "[6]", "result": 9.97, "unit": "g"},
      {"measurement": "Withdrawal Threshold (Log 10 (force (g) × 10 000)) on Day Post-Operative", "setting": "[7]", "result": "5.08 Log 10 (force (g) × 10 000)"},
      {"measurement": "Withdrawal threshold (g) on day post-operative", "setting": "[7]", "result": 13.83, "unit": "g"},
      {"measurement": "Withdrawal Threshold (Log 10 (force (g) × 10 000)) on Day Post-Operative", "setting": "[8]", "result": "4.76 Log 10 (force (g) × 10 000)"},
      {"measurement": "Withdrawal threshold (g) on day post-operative", "setting": "[8]", "result": 8.36, "unit": "g"},
      {"measurement": "Withdrawal Threshold (Log 10 (force (g) × 10 000)) on Day Post-Operative", "setting": "[9]", "result": "5.06 Log 10 (force (g) × 10 000)"},
      {"measurement": "Withdrawal threshold (g) on day post-operative", "setting": "[9]", "result": "13.74 ± 2.42 g and 13.74 g"},
      {"measurement": "Withdrawal Threshold (Log 10 (force (g) × 10 000)) on Day Post-Operative", "setting": "[10]", "result": "4.80 Log 10 (force (g) × 10 000)"},
      {"measurement": "Withdrawal threshold (g) on day post-operative", "setting": "[10]", "result": "7.82 ± 1.43 g and 7.82 g"},
      {"measurement": "Withdrawal Threshold (Log 10 (force (g) × 10 000)) on Day Post-Operative", "setting": "[11]", "result": "5.33 Log 10 (force (g) × 10 000)"},
      {"measurement": "Withdrawal threshold (g) on day post-operative", "setting": "[11]", "result": 21.79, "unit": "g"},
      {"measurement": "Withdrawal Threshold (Log 10 (force (g) × 10 000)) on Day Post-Operative", "setting": "[12]", "result": "5.33 Log 10 (force (g) × 10 000)"},
      {"measurement": "Withdrawal threshold (g) on day post-operative", "setting": "[12]", "result": 21.79, "unit": "g"},
      {"measurement": "Withdrawal Threshold (Log 10 (force (g) × 10 000)) on Day Post-Operative", "setting": "[13]", "result": "5.35 Log 10 (force (g) × 10 000)"},
      {"measurement": "Withdrawal threshold (g) on day post-operative", "setting": "[13]", "result": 22.55, "unit": "g"},
      {"measurement": "Withdrawal Threshold (Log 10 (force (g) × 10 000)) on Day Post-Operative", "setting": "[14]", "result": "5.32 Log 10 (force (g) × 10 000)"},
      {"measurement": "Withdrawal threshold (g) on day post-operative", "setting": "[14]", "result": 21.02, "unit": "g"},
      {"measurement": "Withdrawal Threshold (Log 10 (force (g) × 10 000)) on Day Post-Operative", "setting": "[15]", "result": "5.24 Log 10 (force (g) × 10 000)"},
      {"measurement": "Withdrawal threshold (g) on day post-operative", "setting": "[15]", "result": 18.34, "unit": "g"},
      {"measurement": "Withdrawal Threshold (Log 10 (force (g) × 10 000)) on Day Post-Operative", "setting": "[16]", "result": "5.00 Log 10 (force (g) × 10 000)"},
      {"measurement": "Withdrawal threshold (g) on day post-operative", "setting": "[16]", "result": 11.15, "unit": "g"},
      {"measurement": "Withdrawal Threshold (Log 10 (force (g) × 10 000)) on Day Post-Operative", "setting": "[17]", "result": "5.16 Log 10 (force (g) × 10 000)"},
      {"measurement": "Withdrawal threshold (g) on day post-operative", "setting": "[17]", "result": 15.71, "unit": "g"},
      {"measurement": "Withdrawal Threshold (Log 10 (force (g) × 10 000)) on Day Post-Operative", "setting": "[18]", "result": "4.86 Log 10 (force (g) × 10 000)"},
      {"measurement": "Withdrawal threshold (g) on day post-operative", "setting": "[18]", "result": 8.55, "unit": "g"}
    ]}
  ]
}
